The results in this text go back to patent US7811797B2, “α-isomaltosylglucosaccharide-forming enzyme, process and uses of the same” (Kabushiki Kaisha Hayashibara Seibutsu Kagaku Kenkyujo, priority 2000, dated 2010).

Read-outs that look alike come from different tables or passages of the source.

The test system of data set [1] is α-isomaltosylglucosaccharide-forming enzyme. In words: Action on saccharides (substrates), Enzyme of Strain A19. The class given is biochemical, Arthrobacter globiformis A19. Conditions: two units/g substrate, substrate 2% (w/v), 30° C., pH 8.4, 24 hours, TLC. Further details: key: −: it showed no change; +: it showed a slight reduction of the color spot of the substrate and the formation of other reaction product; ++: it showed a high reduction of the color spot of the substrate and the formation of other reaction product; +++: it showed a substantial disappearance of the substrate spot and the formation of other reaction product. An outline of the steps: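 Purified enzyme from each strain was added at 2 units/g substrate to each of 24 saccharides at 2% (w/v). Incubation ran 24 h at 30° C, pH 6.0, or pH 8.4 for the A19 enzyme. TLC compared reaction mixtures before and after incubation to show whether each substrate was acted on.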

The target of data set [2] is T1, Amylopsin (Homo sapiens, UniProt P04746).
T1 sequence (P04746 16-511): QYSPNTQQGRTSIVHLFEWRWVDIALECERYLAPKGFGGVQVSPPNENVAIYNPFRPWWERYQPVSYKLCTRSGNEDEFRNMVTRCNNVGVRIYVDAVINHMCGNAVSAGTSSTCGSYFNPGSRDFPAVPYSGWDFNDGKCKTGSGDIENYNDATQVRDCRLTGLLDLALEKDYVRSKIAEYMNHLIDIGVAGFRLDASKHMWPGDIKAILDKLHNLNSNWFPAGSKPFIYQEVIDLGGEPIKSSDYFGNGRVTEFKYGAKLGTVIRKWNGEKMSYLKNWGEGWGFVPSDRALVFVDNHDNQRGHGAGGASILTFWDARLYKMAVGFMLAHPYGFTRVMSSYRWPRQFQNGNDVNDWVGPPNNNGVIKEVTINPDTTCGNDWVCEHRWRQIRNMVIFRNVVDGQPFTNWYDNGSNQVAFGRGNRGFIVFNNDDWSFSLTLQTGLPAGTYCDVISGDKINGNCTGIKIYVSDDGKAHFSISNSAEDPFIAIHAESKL
Description: Digestion test in vitro, amylopsin.

The nature of data set [3]: Saturation concentration of cyclotetrasaccharide in water. In kind it is physicochemical. The source says: Each resulting saturated solution of cyclotetrasaccharide was membrane filtered to remove undissolved cyclotetrasaccharide, and each filtrate was then examined for moisture content by the drying loss method to determine a saturation concentration of cyclotetrasaccharide at respective temperatures.

Data set [4] can be described thus: Thermostability of aqueous cyclotetrasaccharide solution. In kind it is physicochemical. The following applies: 10% (w/v) aqueous solution, 120° C.; for Purity (%) after heating: HPLC. The method, then: After the heating, the aqueous solution was cooled under atmospheric conditions and measured for coloration degree and determined for purity on HPLC. The coloration degree was evaluated based on the absorbance in a cell with a 1-cm light pass at a wavelength of 480 nm.

Another data set can be described thus: Inclusion action. In kind it is physicochemical. The method, then:
To 100 g of the aqueous solution was added 2 g of methanol, 3 g of ethanol, or 4.6 g acetic acid to be included by the cyclotetrasaccharide. Thereafter, each of the resulting solutions was filtered to remove non-included products, and the filtrate was dried in vacuo. As a control, similar inclusion products were prepared by using “ISOELITE™ P”, a branched cyclodextrin commercialized by Maruha K.K., Tokyo, Japan, which were known to have inclusion ability.
To measure the amount of the inclusion products in the resulting lyophilized powders, one gram of each powder was dissolved in five milliliters water and extracted after admixing with five milliliters of diethylether. The extraction was repeated, and the resulting extracts were quantified on gas chromatography.

Data set [5] deals with Bacteroides vulgatus JCM 5826. In words: Assimilation test, Bacteroides vulgatus. In kind it is cell-based. The following applies: PYF medium with 0.5% saccharide, 37° C., four days, anaerobic.
For data set [6], the system named is Eubacterium aerofaciens ATCC 25986. In words: Assimilation test, Eubacterium aerofaciens. In kind it is cell-based. Conditions: PYF medium with 0.5% saccharide, 37° C., four days, anaerobic.
For data set [7], the system named is Lactobacillus acidophilus JCM 1132. In words: Assimilation test, Lactobacillus acidophilus. The class given is cell-based. Conditions: PYF medium with 0.5% saccharide, 37° C., four days, anaerobic.
The nature of data set [8]: Reducing power on the Somogyi-Nelson's method. In kind it is physicochemical.
The target of data set [9] is T1, Amylopsin.

On to `OC[C@@H](O)[C@@H](O[C@H]1O[C@H](CO)[C@@H](O)[C@H](O)[C@H]1O)[C@H](O)[C@@H](O)CO` [Maltitol, reference compound], for which the “Enzymatic action, Enzyme of Strain A19” value in [1] is “−”. For the same compound, the “Decomposition percentage (%) by digestive enzyme” value at Amylopsin [2] came to 0.0%.
On to `OCC1OC2OCC3O[C@H](O[C@H]4C(O)C(CO)OC(OCC5O[C@H](O[C@@H](C1O)C2O)C(O)C(O)[C@@H]5O)C4O)C(O)C(O)[C@@H]3O` (stereo partly drawn) [Cyclotetrasaccharide, cyclo{→6)-α-D-glucopyranosyl-(1→3)-α-D-glucopyranosyl-(1→6)-α-D-glucopyranosyl-(1→3)-α-D-glucopyransoyl-(1→}], for which the “Saturation concentration (%)” value in data set [3] (10° C.) is 30.3%; in data set [3] (30° C.) it was 34.2%; in [3] (50° C.), 42.6%; in [3] (70° C.), 53.0%; in [3] (90° C.), 70.5%. Besides, the “Coloration degree (A480 nm)” value in [4] (heating time 0 min), in data set [4] (heating time 30 min), in data set [4] (heating time 60 min) and in data set [4] (heating time 90 min) was 0.00 A480 nm throughout. Further, the “Purity (%) after heating” value in [4] (heating time 0 min), in [4] (heating time 30 min), in data set [4] (heating time 60 min) and in data set [4] (heating time 90 min) was 100% in each case. Also, the “inclusion ability relative to that of the branched cyclodextrin” value in the data set “Inclusion action” (by weight) is “about 2 folds”. Moreover, the “Inclusion amount (mg/g lyophilized powder)” value amounted to 67.74 mg/g lyophilized powder in “Inclusion action” (inclusion product Acetic acid), 17.26 mg/g lyophilized powder in “Inclusion action” (inclusion product Ethanol) and 6.71 mg/g lyophilized powder in “Inclusion action” (inclusion product Methanol). Further, the Assimilability entry in data set [5], in data set [6] and in data set [7] was “− (judged negative (−) when the post culture had a pH of 6.0 or higher)” throughout. Moreover, the reducing power result in data set [8] was “below a detectable level”. The “Decomposition percentage (%) by digestive enzyme” value on Amylopsin [9] stood at 0.0%.
